pIC50: −log10 of the molar value. Like-named read-outs stand apart in the source and are kept apart here.
What was measured:
Factor XIa = Factor XIa (Homo sapiens (Human), UniProt P03951); assay: Factor XIa inhibition assay (FLINT) utilizing a fluorophore-quencher pair peptide substrate; assay type: biochemical; conditions: 30 min preincubation, kinetic reads over 30 min, read-out: FXIa Kin Inh IC50
Outline: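 FXIa ([…]) preincubated 30 min with compound (11-point 3-fold dilution, top 100 nM, 2% DMSO), then 15 μM quenched FXI Arg146-based peptide added; Tris pH 7.5, CaCl2, BSA, CHAPS. Fluorescence 485/520 nm read kinetically every 5 min over 30 min at RT; IC50 by 4-parameter fit.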

human plasma kallikrein = human plasma kallikrein (Homo sapiens (Human), UniProt P03952); assay: Kallikrein inhibition assay (FLINT) utilizing a quenched AMC peptide substrate; assay type: biochemical; conditions: 30 min preincubation, kinetic reads over 30 min, Z-Gly-Pro-Arg-AMC substrate 50 μM; read-out: Kallikrein Kin Inh IC50
Outline: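 Enzyme (2 nM final) pre-incubated 30 min at room temperature with compound (11-point, 3-fold, top 1 μM, 2% DMSO), then 50 μM Z-Gly-Pro-Arg-AMC added in Tris pH 7.5 buffer. Kinetic fluorescence 340/440 nm every 5 min over 30 min; IC50 from 4-parameter logistic fit.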

[1] = 5Fam-KLTRAETV-K5Tamra substrate 15 μM
[2] = 5Fam-[…]-K5Tamra substrate 15 μM

Chain of Factor XIa (P03951 388-625): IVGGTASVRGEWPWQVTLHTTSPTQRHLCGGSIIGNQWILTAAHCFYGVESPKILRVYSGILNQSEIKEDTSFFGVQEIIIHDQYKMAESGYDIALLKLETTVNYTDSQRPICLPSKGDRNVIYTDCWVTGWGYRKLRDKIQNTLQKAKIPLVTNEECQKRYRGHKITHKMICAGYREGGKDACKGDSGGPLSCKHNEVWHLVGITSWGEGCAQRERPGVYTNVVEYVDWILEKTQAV
Chain of Factor XIa (P03951 19-387 partner): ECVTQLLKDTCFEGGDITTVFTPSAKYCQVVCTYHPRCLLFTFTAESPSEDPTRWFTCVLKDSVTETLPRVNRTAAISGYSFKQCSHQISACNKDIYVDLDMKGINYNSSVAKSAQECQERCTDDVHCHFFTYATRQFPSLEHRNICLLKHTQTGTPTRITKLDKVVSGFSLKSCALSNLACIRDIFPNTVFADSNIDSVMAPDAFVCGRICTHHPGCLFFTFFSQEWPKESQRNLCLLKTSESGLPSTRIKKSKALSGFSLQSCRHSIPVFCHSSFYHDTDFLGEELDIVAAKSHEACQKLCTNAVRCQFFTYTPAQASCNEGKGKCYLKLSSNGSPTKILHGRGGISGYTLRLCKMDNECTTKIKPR
Chain of human plasma kallikrein (P03952 391-638): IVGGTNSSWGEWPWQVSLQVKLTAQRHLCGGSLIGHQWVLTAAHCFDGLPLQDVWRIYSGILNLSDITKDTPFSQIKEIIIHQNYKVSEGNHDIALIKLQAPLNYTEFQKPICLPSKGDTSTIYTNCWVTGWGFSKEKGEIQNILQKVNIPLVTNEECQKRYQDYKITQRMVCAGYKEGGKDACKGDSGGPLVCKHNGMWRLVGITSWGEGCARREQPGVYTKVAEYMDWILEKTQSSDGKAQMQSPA
Chain of human plasma kallikrein (P03952 20-390 partner): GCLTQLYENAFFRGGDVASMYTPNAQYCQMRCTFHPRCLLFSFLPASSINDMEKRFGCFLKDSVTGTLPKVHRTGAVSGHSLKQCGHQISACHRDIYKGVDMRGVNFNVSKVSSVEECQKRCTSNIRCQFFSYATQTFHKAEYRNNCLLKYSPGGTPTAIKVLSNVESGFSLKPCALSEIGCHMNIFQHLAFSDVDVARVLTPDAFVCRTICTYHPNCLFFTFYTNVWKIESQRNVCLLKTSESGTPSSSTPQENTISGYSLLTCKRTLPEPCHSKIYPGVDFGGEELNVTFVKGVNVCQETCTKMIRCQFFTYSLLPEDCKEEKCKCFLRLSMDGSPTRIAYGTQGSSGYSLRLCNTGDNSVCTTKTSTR

SMILES	pIC50 (Factor XIa; [1])	pIC50 (human plasma kallikrein)	pIC50 (Factor XIa; [2])
O=C1C=C(c2c(-n3cnnn3)ccc(Cl)c2F)CC2CC[C@H](c3nc(F)c(-c4ccnc(N[C@H]5CCOC5)c4F)[nH]3)N12 (relative stereo) [Example 77, (3R*)-7-(3-chloro-2-fluoro-6-(1H-tetrazol-1-yl)phenyl)-3-(4-fluoro-5-(3-fluoro-2-(((S)-tetrahydrofuran-3-yl)amino)pyridin-4-yl)-1H-imidazol-2-yl)-2,3,8,8a-tetrahydroindolizin-5(1H)-one]		8.30	8.89
CC(F)(F)C(=O)Nc1cnccc1-c1c[nH]c([C@@H]2CCC3CC(c4c(-n5cnnn5)ccc(Cl)c4F)=CC(=O)N32)n1 (stereo partly drawn) [Example 246, N-[4-[2-[(3S)-7-[3-Chloro-2-fluoro-6-(tetrazol-1-yl)phenyl]-5-oxo-2,3,8,8a-tetrahydro-1H-indolizin-3-yl]-1H-imidazol-4-yl]-3-pyridyl]-2,2-difluoro-propanamide]	8.74	6.85	
O=C1C=C(c2cc(Cl)ccc2-n2cnnn2)C[C@H]2CC[C@@H](c3ncc(-c4ccnc(NC56CC(C5)C6)c4F)[nH]3)N12 [Example 96, (3S,8aR)-3-(5-(2-(Bicyclo[1.1.1]pentan-1-ylamino)-3-fluoropyridin-4-yl)-1H-imidazol-2-yl)-7-(5-chloro-2-(1H-tetrazol-1-yl)phenyl)-2,3,8,8a-tetrahydroindolizin-5(1H)-one]	8.27	8.59	
NC(=O)c1ccc(-c2nc([C@@H]3CC[C@@H]4CC(c5c(-n6cc(C(F)(F)F)nn6)ccc(Cl)c5F)=CC(=O)N43)[nH]c2Cl)s1 [Example 203, 5-(5-Chloro-2-((3S,8aR)-7-(3-chloro-2-fluoro-6-(4-(trifluoromethyl)-1H-1,2,3-triazol-1-yl)phenyl)-5-oxo-1,2,3,5,8,8a-hexahydroindolizin-3-yl)-1H-imidazol-4-yl)thiophene-2-carboxamide]	9.05	8.60	
CO[C@H]1C[C@@H](c2nc(-c3ccc(N)nc3F)c[nH]2)N2C(=O)C=C(c3c(-n4cnnn4)ccc(Cl)c3F)CC12 (stereo partly drawn) [Example 285, (1 S,3S)-3-(4-(6-Amino-2-fluoropyridin-3-yl)-1H-imidazol-2-yl)-7-(3-chloro-2-fluoro-6-(1H-tetrazol-1-yl)phenyl)-1-methoxy-2,3,8,8a-tetrahydroindolizin-5(1H)-one]	8.04	6.68	
CC(C)(CO)Nc1nccc(-c2cnc([C@@H]3CC[C@@H]4CC(c5cc(Cl)ccc5-n5cnnn5)=CC(=O)N43)[nH]2)c1F [Example 79, (3S,8aR)-7-[5-chloro-2-(tetrazol-1-yl)phenyl]-3-[5-[3-fluoro-2-[(2-hydroxy-1,1-dimethyl-ethyl)amino]-4-pyridyl]-1H-imidazol-2-yl]-2,3,8,8a-tetrahydro-1H-indolizin-5-one]	8.12	7.91	
O=C(O)c1sc(-c2cnc([C@@H]3CC[C@@H]4CC(c5c(-n6cc(C(F)(F)F)nn6)ccc(Cl)c5F)=CC(=O)N43)[nH]2)cc1F (single isomer, unassigned) [Example 195, 5-(2-((3*S,8aR)-7-(3-chloro-2-fluoro-6-(4-(trifluoromethyl)-1H-1,2,3-triazol-1-yl)phenyl)-5-oxo-1,2,3,5,8,8a-hexahydroindolizin-3-yl)-1H-imidazol-yl)-3-fluorothiophene-2-carboxylic acid]	9.30	7.66	
C[C@@H](O)c1nccc(-c2[nH]c([C@@H]3CC[C@@H]4CC(c5cc(Cl)ccc5-n5cnnn5)=CC(=O)N43)nc2F)c1F (relative stereo) [Example 45, (3S,8aR)-7-(5-chloro-2-(1H-tetrazol-1-yl)phenyl)-3-(4-fluoro-5-(3-fluoro-2-((R*)-1-hydroxyethyl)pyridin-4-yl)-1H-imidazol-2-yl)-2,3,8,8a-tetrahydroindolizin-5(1H)-one]		7.38	8.36
[2H]C([2H])([2H])C(=O)Nc1cnccc1-c1c[nH]c([C@@H]2CCC3CC(c4c(-n5cnnn5)ccc(Cl)c4F)=CC(=O)N32)n1 (stereo partly drawn) [Example 256, N-[4-[2-[(3S)-7-[3-Chloro-2-fluoro-6-(tetrazol-1-yl)phenyl]-5-oxo-2,3,8,8a-tetrahydro-1H-indolizin-3-yl]-1H-imidazol-4-yl]-3-pyridyl]-2,2,2-trideuterio-acetamide]		7.17	8.85

The next lines start with the values.

pIC50 (Factor XIa; [1])	pIC50 (human plasma kallikrein)	pIC50 (Factor XIa; [2])	SMILES
8.39	7.50		O=C1C=C(c2c(-n3cnnn3)ccc(Cl)c2F)C[C@H]2CC[C@@H](c3ncc(-c4ccnc([C@@H](O)C(F)(F)F)c4F)[nH]3)N12 (single isomer, unassigned) [Example 171, (3*S,8a*R)-7-(3-chloro-2-fluoro-6-(1H-tetrazol-1-yl)phenyl)-3-(5-(3-fluoro-2-((*R)-2,2,2-trifluoro-1-hydroxyethyl)pyridin-4-yl)-1H-imidazol-2-yl)-2,3,8,8a-tetrahydroindolizin-5(1H)-one]
8.25	8.82		NC(=O)c1cccc(-c2cnc([C@@H]3CC[C@@H]4CC(c5c(-n6cnnn6)ccc(Cl)c5F)=CC(=O)N43)[nH]2)c1F [Example 237, 3-(2-((3S,8aR)-7-(3-Chloro-2-fluoro-6-(1H-tetrazol-1-yl)phenyl)-5-oxo-1,2,3,5,8,8a-hexahydroindolizin-3-yl)-1H-imidazol-5-yl)-2-fluorobenzamide]
9.22	8.18		CS(=O)(=O)Nc1cc(-c2[nH]c(C3CCC4CC(c5c(-n6cnnn6)ccc(Cl)c5F)=CC(=O)N43)nc2F)ccn1 (centres unmarked) [Example 6, N-[4-[2-[7-[3-Chloro-2-fluoro-6-(tetrazol-1-yl)phenyl]-5-oxo-2,3,8,8a-tetrahydro-1H-indolizin-3-yl]-4-fluoro-1H-imidazol-5-yl]-2-pyridyl]methanesulfonamide]
9.30	8.72		COCCNc1nccc(-c2cnc([C@@H]3CCC4CC(c5c(-n6cnnn6)ccc(Cl)c5F)=CC(=O)N43)[nH]2)c1F (stereo partly drawn) [Example 161, (3S)-7-(3-chloro-2-fluoro-6-(1H-tetrazol-1-yl)phenyl)-3-(5-(3-fluoro-2-((2-methoxyethyl)amino)pyridin-4-yl)-1H-imidazol-2-yl)-2,3,8,8a-tetrahydroindolizin-5(1H)-one]
9.40	7.85		O=C(O)c1nccc(-c2cnc([C@@H]3CC[C@@H]4CC(c5c(-n6cnnn6)ccc(Cl)c5F)=CC(=O)N43)[nH]2)c1F [Example 182, 4-(2-((3S,8aR)-7-(3-chloro-2-fluoro-6-(1H-tetrazol-1-yl)phenyl)-5-oxo-1,2,3,5,8,8a-hexahydroindolizin-3-yl)-1H-imidazol-5-yl)-3-fluoropicolinic acid]
7.34	6.38		O=C1C=C(c2c(-n3cnnn3)ccc(Cl)c2F)C[C@H]2CC[C@@H](c3ncc(-c4cc[n+]([O-])c(CO)c4F)[nH]3)N12 [Example 65, 4-(2-((3S,8aR)-7-(3-chloro-2-fluoro-6-(1H-tetrazol-1-yl)phenyl)-5-oxo-1,2,3,5,8,8a-hexahydroindolizin-3-yl)-1H-imidazol-5-yl)-3-fluoro-2-(hydroxymethyl)pyridine 1-oxide]
8.49	7.56		[2H]c1nc([C@@H]2CC[C@@H]3CC(c4c(-n5cnnn5)ccc(Cl)c4F)=CC(=O)N32)[nH]c1-c1ccnc(C([2H])([2H])O)c1F [Example 113, (3S,8aR)-7-[3-Chloro-2-fluoro-6-(tetrazol-1-yl)phenyl]-3-[4-deuterio-5-[2-[dideuterio(hydroxy)methyl]-3-fluoro-4-pyridyl]-1H-imidazol-2-yl]-2,3,8,8a-tetrahydro-1H-indolizin-5-one]

Source: US20230295157A1, “3-(1H-IMIDAZOL-2-YL)-2,3,8,8A-TETRAHYDROINDOLIZIN-5(1H)-ONE DERIVATIVES USEFUL AS FACTOR XIA INHIBITORS” (JANSSEN PHARMACEUTICA NV, priority 2020, published 2023)
